Source: article PMC12102759 (Protein Science : A Publication of the Protein Society, 2025)
Where two headings read alike, the source gives them in different places.

System: PABPC1 PABC
Format: binding, human
Conditions: DMS-BM library, bait PABPC1 PABC, row aa = residue at this position; for DMS-derived PSSM value (averaged), position K7 / DMS-derived PSSM value, position K7: K = wild type; for DMS-derived PSSM value, position T3: T = wild type
[1] = prey ATXN2, peptide TLNPNAKEFNPRSFSQ, P = wild type
[2] = prey ATXN2, peptide KSTLNPNAKEFNPRSF, E = wild type
[3] = prey ATXN2, peptide KSTLNPNAKEFNPRSF, R = wild type
[4] = prey ATXN2, peptide TLNPNAKEFNPRSFSQ, F = wild type
[5] = prey ATXN2, peptide KSTLNPNAKEFNPRSF, F = wild type
[6] = prey ATXN2, TLNPNAKEFNPRSF(averaged) over the two overlapping peptides
[7] = prey ATXN2, peptide KSTLNPNAKEFNPRSF, S = wild type
[8] = prey ATXN2, peptide TLNPNAKEFNPRSFSQ, S = wild type
[9] = prey ATXN2, peptide KSTLNPNAKEFNPRSF, N = wild type
[10] = prey ATXN2, peptide TLNPNAKEFNPRSFSQ, N = wild type
[11] = prey ATXN2, peptide KSTLNPNAKEFNPRSF
[12] = prey ATXN2, TLNPNAKEFNPRSF(averaged) over the two overlapping peptides, N = wild type
[13] = prey ATXN2, TLNPNAKEFNPRSF(averaged) over the two overlapping peptides, F = wild type
[14] = prey ATXN2, TLNPNAKEFNPRSF(averaged) over the two overlapping peptides, P = wild type
[15] = prey ATXN2, peptide TLNPNAKEFNPRSFSQ
[16] = prey ATXN2, peptide TLNPNAKEFNPRSFSQ, L = wild type
[17] = prey ATXN2, peptide KSTLNPNAKEFNPRSF, P = wild type
[18] = prey ATXN2, peptide TLNPNAKEFNPRSFSQ, E = wild type

## TLNPNAKEFNPRSFSQ P11A (TLNPNAKEFNARSFSQ)
[1]
  DMS-derived PSSM value, position P11: 0.0003099

## KSTLNPNAKEFNPRSF E10A (KSTLNPNAKAFNPRSF)
[2]
  DMS-derived PSSM value, position E10: 0.002857

## KSTLNPNAKEFNPRSF R14M (KSTLNPNAKEFNPMSF)
[3]
  DMS-derived PSSM value, position R14: 0.00585

## TLNPNAKEFNPRSFSQ F14E (TLNPNAKEFNPRSESQ)
[4]
  DMS-derived PSSM value, position F14: 0.02018

## TLNPNAKEFNPRSFSQ P4Q (TLNQNAKEFNPRSFSQ)
[1]
  DMS-derived PSSM value, position P4: 0.03549

## TLNPNAKEFNPRSFSQ P11S (TLNPNAKEFNSRSFSQ)
[1]
  DMS-derived PSSM value, position P11: 0.03014

## KSTLNPNAKEFNPRSF A8M (KSTLNPNMKEFNPRSF)
Prey ATXN2, peptide KSTLNPNAKEFNPRSF, A = wild type
  DMS-derived PSSM value, position A8: 0

## KSTLNPNAKEFNPRSF F11K (KSTLNPNAKEKNPRSF)
[5]
  DMS-derived PSSM value, position F11: 0.006092

## TLNPNAKEFNPRSFSQ A6G (TLNPNGKEFNPRSFSQ)
Prey ATXN2, peptide TLNPNAKEFNPRSFSQ, A = wild type
  DMS-derived PSSM value, position A6: 0

## TLNPNAKEFNPRSF(averaged) K7P (TLNPNAPEFNPRSF)
[6]
  DMS-derived PSSM value (averaged), position K7: 0.005399

## TLNPNAKEFNPRSFSQ R12F (TLNPNAKEFNPFSFSQ)
Prey ATXN2, peptide TLNPNAKEFNPRSFSQ, R = wild type
  DMS-derived PSSM value, position R12: 0.03143

## KSTLNPNAKEFNPRSF S2R (KRTLNPNAKEFNPRSF)
[7]
  DMS-derived PSSM value, position S2: 0.0005784

## TLNPNAKEFNPRSFSQ S15N (TLNPNAKEFNPRSFNQ)
[8]
  DMS-derived PSSM value, position S15: 0.007151

## KSTLNPNAKEFNPRSF N5P (KSTLPPNAKEFNPRSF)
[9]
  DMS-derived PSSM value, position N5: 0

## KSTLNPNAKEFNPRSF N12Y (KSTLNPNAKEFYPRSF)
[9]
  DMS-derived PSSM value, position N12: 0.1026

## KSTLNPNAKEFNPRSF N5S (KSTLSPNAKEFNPRSF)
[9]
  DMS-derived PSSM value, position N5: 0.0715

## TLNPNAKEFNPRSFSQ N10G (TLNPNAKEFGPRSFSQ)
[10]
  DMS-derived PSSM value, position N10: 0.01946

## KSTLNPNAKEFNPRSF T3N (KSNLNPNAKEFNPRSF)
[11]
  DMS-derived PSSM value, position T3: 0.01165

## TLNPNAKEFNPRSF(averaged) N5L (TLNPLAKEFNPRSF)
[12]
  DMS-derived PSSM value (averaged), position N5: 0.05209

## TLNPNAKEFNPRSF(averaged) F14S (TLNPNAKEFNPRSS)
[13]
  DMS-derived PSSM value (averaged), position F14: 0.01539

## TLNPNAKEFNPRSFSQ N5D (TLNPDAKEFNPRSFSQ)
[10]
  DMS-derived PSSM value, position N5: 0.00392

## KSTLNPNAKEFNPRSF R14A (KSTLNPNAKEFNPASF)
[3]
  DMS-derived PSSM value, position R14: 0.09772

## TLNPNAKEFNPRSFSQ P4W (TLNWNAKEFNPRSFSQ)
[1]
  DMS-derived PSSM value, position P4: 0

## TLNPNAKEFNPRSF(averaged) P4N (TLNNNAKEFNPRSF)
[14]
  DMS-derived PSSM value (averaged), position P4: 0.0005247

## KSTLNPNAKEFNPRSF S2E (KETLNPNAKEFNPRSF)
[7]
  DMS-derived PSSM value, position S2: 0.01242

## KSTLNPNAKEFNPRSF T3L (KSLLNPNAKEFNPRSF)
[11]
  DMS-derived PSSM value, position T3: 0.01491

## TLNPNAKEFNPRSFSQ N3A (TLAPNAKEFNPRSFSQ)
[10]
  DMS-derived PSSM value, position N3: 0

## TLNPNAKEFNPRSFSQ N10L (TLNPNAKEFLPRSFSQ)
[10]
  DMS-derived PSSM value, position N10: 0.1974

## TLNPNAKEFNPRSF(averaged) K7H (TLNPNAHEFNPRSF)
[6]
  DMS-derived PSSM value (averaged), position K7: 0.03669

## KSTLNPNAKEFNPRSF T3Y (KSYLNPNAKEFNPRSF)
[11]
  DMS-derived PSSM value, position T3: 0.005309

## TLNPNAKEFNPRSF(averaged) F9D (TLNPNAKEDNPRSF)
[13]
  DMS-derived PSSM value (averaged), position F9: 0.001318

## KSTLNPNAKEFNPRSF R14P (KSTLNPNAKEFNPPSF)
[3]
  DMS-derived PSSM value, position R14: 0.00803

## TLNPNAKEFNPRSF(averaged) P4V (TLNVNAKEFNPRSF)
[14]
  DMS-derived PSSM value (averaged), position P4: 0.4012

## TLNPNAKEFNPRSF(averaged) F9M (TLNPNAKEMNPRSF)
[13]
  DMS-derived PSSM value (averaged), position F9: 0

## TLNPNAKEFNPRSF(averaged) P4E (TLNENAKEFNPRSF)
[14]
  DMS-derived PSSM value (averaged), position P4: 0.0008442

## TLNPNAKEFNPRSF(averaged) K7L (TLNPNALEFNPRSF)
[6]
  DMS-derived PSSM value (averaged), position K7: 0.03789

## KSTLNPNAKEFNPRSF E10H (KSTLNPNAKHFNPRSF)
[2]
  DMS-derived PSSM value, position E10: 0.3776

## TLNPNAKEFNPRSFSQ P11V (TLNPNAKEFNVRSFSQ)
[1]
  DMS-derived PSSM value, position P11: 0.1131

## KSTLNPNAKEFNPRSF F16S (KSTLNPNAKEFNPRSS)
[5]
  DMS-derived PSSM value, position F16: 0.02635

## TLNPNAKEFNPRSFSQ K7R (TLNPNAREFNPRSFSQ)
[15]
  DMS-derived PSSM value, position K7: 0.00234

## KSTLNPNAKEFNPRSF L4A (KSTANPNAKEFNPRSF)
Prey ATXN2, peptide KSTLNPNAKEFNPRSF, L = wild type
  DMS-derived PSSM value, position L4: 0

## TLNPNAKEFNPRSFSQ N5M (TLNPMAKEFNPRSFSQ)
[10]
  DMS-derived PSSM value, position N5: 0.7094

## TLNPNAKEFNPRSFSQ N5Y (TLNPYAKEFNPRSFSQ)
[10]
  DMS-derived PSSM value, position N5: 0.002973

## KSTLNPNAKEFNPRSF N12S (KSTLNPNAKEFSPRSF)
[9]
  DMS-derived PSSM value, position N12: 0.008786

## KSTLNPNAKEFNPRSF R14Q (KSTLNPNAKEFNPQSF)
[3]
  DMS-derived PSSM value, position R14: 0.09624

## TLNPNAKEFNPRSFSQ L2G (TGNPNAKEFNPRSFSQ)
[16]
  DMS-derived PSSM value, position L2: 0

## TLNPNAKEFNPRSF(averaged) F14H (TLNPNAKEFNPRSH)
[13]
  DMS-derived PSSM value (averaged), position F14: 0.06346

## KSTLNPNAKEFNPRSF P6Q (KSTLNQNAKEFNPRSF)
[17]
  DMS-derived PSSM value, position P6: 0

## KSTLNPNAKEFNPRSF P13E (KSTLNPNAKEFNERSF)
[17]
  DMS-derived PSSM value, position P13: 0.006076

## TLNPNAKEFNPRSFSQ L2E (TENPNAKEFNPRSFSQ)
[16]
  DMS-derived PSSM value, position L2: 0.08907

## KSTLNPNAKEFNPRSF P13F (KSTLNPNAKEFNFRSF)
[17]
  DMS-derived PSSM value, position P13: 0.002959

## KSTLNPNAKEFNPRSF F16G (KSTLNPNAKEFNPRSG)
[5]
  DMS-derived PSSM value, position F16: 0

## KSTLNPNAKEFNPRSF S15D (KSTLNPNAKEFNPRDF)
[7]
  DMS-derived PSSM value, position S15: 0

## TLNPNAKEFNPRSFSQ F14A (TLNPNAKEFNPRSASQ)
[4]
  DMS-derived PSSM value, position F14: 0.01754

## KSTLNPNAKEFNPRSF F16D (KSTLNPNAKEFNPRSD)
[5]
  DMS-derived PSSM value, position F16: 0.02019

## KSTLNPNAKEFNPRSF N7V (KSTLNPVAKEFNPRSF)
[9]
  DMS-derived PSSM value, position N7: 0.01745

## TLNPNAKEFNPRSFSQ K7P (TLNPNAPEFNPRSFSQ)
[15]
  DMS-derived PSSM value, position K7: 0.006619

## TLNPNAKEFNPRSF(averaged) N10V (TLNPNAKEFVPRSF)
[12]
  DMS-derived PSSM value (averaged), position N10: 0.105

## TLNPNAKEFNPRSFSQ S13L (TLNPNAKEFNPRLFSQ)
[8]
  DMS-derived PSSM value, position S13: 0.06939

## TLNPNAKEFNPRSF(averaged) P11R (TLNPNAKEFNRRSF)
[14]
  DMS-derived PSSM value (averaged), position P11: 0.003178

## TLNPNAKEFNPRSFSQ S15I (TLNPNAKEFNPRSFIQ)
[8]
  DMS-derived PSSM value, position S15: 0.0111

## TLNPNAKEFNPRSF(averaged) F9P (TLNPNAKEPNPRSF)
[13]
  DMS-derived PSSM value (averaged), position F9: 0

## KSTLNPNAKEFNPRSF S15T (KSTLNPNAKEFNPRTF)
[7]
  DMS-derived PSSM value, position S15: 0.007163

## TLNPNAKEFNPRSFSQ P11N (TLNPNAKEFNNRSFSQ)
[1]
  DMS-derived PSSM value, position P11: 0.04264

## TLNPNAKEFNPRSF(averaged) E8W (TLNPNAKWFNPRSF)
Prey ATXN2, TLNPNAKEFNPRSF(averaged) over the two overlapping peptides, E = wild type
  DMS-derived PSSM value (averaged), position E8: 0

## TLNPNAKEFNPRSF(averaged) P4K (TLNKNAKEFNPRSF)
[14]
  DMS-derived PSSM value (averaged), position P4: 0

## TLNPNAKEFNPRSFSQ E8V (TLNPNAKVFNPRSFSQ)
[18]
  DMS-derived PSSM value, position E8: 0.09834

## KSTLNPNAKEFNPRSF R14T (KSTLNPNAKEFNPTSF)
[3]
  DMS-derived PSSM value, position R14: 0.1913

## KSTLNPNAKEFNPRSF P13M (KSTLNPNAKEFNMRSF)
[17]
  DMS-derived PSSM value, position P13: 0

## TLNPNAKEFNPRSF(averaged) K7N (TLNPNANEFNPRSF)
[6]
  DMS-derived PSSM value (averaged), position K7: 0.09977

## TLNPNAKEFNPRSF(averaged) N3I (TLIPNAKEFNPRSF)
[12]
  DMS-derived PSSM value (averaged), position N3: 0

## TLNPNAKEFNPRSFSQ E8G (TLNPNAKGFNPRSFSQ)
[18]
  DMS-derived PSSM value, position E8: 0
